Reference: paper PMC8292455, “Kinetic characterisation and inhibitor sensitivity of Candida albicans and Candida auris recombinant AOX expressed in a self-assembled proteoliposome system” (Scientific Reports, 2021)

Columns and labels:
C. auris AOX [1] = molecular target: T1, C. auris AOX (Candidozyma auris, UniProt A0A0L0NPQ3); assay: NADH oxidation at […] nm in NDH-2/AOX proteoliposomes, dose-response; assay type: biochemical
T1 construct: twin-strep tag (pET15b.TS, pTS.CaAOX) kept; from E. coli FN102; in self-assembled proteoliposomes

C. albicans AOX2 [2] = molecular target: T2, C. albicans AOX2 (Candida albicans, UniProt Q9UV71); assay: as above; assay type: biochemical
T2 construct: twin-strep tag (pET15b.TS, pTS.CalbAOX2) kept; from E. coli FN102; in self-assembled proteoliposomes
T2 sequence (Q9UV71 27-365): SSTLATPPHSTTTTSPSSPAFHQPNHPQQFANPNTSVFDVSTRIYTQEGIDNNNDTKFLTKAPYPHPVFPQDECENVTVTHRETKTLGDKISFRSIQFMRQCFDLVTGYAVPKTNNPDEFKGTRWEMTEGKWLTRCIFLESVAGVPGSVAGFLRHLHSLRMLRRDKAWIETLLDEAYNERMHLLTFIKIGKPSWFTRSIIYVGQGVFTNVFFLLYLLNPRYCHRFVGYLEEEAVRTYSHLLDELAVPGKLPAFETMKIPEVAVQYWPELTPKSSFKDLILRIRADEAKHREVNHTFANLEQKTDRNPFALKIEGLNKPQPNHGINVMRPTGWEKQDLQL

NDH-2 = molecular target: T3, NDH-2 (Caldalkalibacillus thermarum, UniProt F5L3B8); assay: NADH oxidation at […] nm; assay type: biochemical; conditions: 50 mM MOPS pH 7.5, 250 uM Q1, 300 uM NADH
T3 construct: gene CathTA2_0279; His-tagged, from E. coli C41 (plasmid pTRCndh2); predicted mass 44 kDa
T3 sequence (F5L3B8 1-399): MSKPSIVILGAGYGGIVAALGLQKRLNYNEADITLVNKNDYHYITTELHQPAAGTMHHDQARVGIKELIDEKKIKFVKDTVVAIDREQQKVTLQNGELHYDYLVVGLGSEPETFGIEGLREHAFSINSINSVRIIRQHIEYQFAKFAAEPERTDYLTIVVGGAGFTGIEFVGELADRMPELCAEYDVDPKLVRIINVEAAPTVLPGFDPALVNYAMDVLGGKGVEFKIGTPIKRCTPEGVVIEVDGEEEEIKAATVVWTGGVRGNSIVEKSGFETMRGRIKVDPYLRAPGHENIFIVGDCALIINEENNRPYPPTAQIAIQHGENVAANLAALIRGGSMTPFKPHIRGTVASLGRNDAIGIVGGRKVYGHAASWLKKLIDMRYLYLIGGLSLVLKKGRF

C. auris AOX [3] = molecular target: T1, C. auris AOX; assay: oxygen consumption of NDH-2/AOX proteoliposomes (Oroboros oxygraph), dose-response; assay type: biochemical
C. albicans AOX2 [4] = molecular target: T2, C. albicans AOX2; assay: as above; assay type: biochemical
[5] = system: COc1c(O)c(C)c(C/C=C(\C)CC/C=C(\C)CC/C=C(\C)CC/C=C(\C)CC/C=C(\C)CC/C=C(\C)CC/C=C(\C)CC/C=C(\C)CC/C=C(\C)CCC=C(C)C)c(O)c1OC; assay: purified protein; conditions: 65 mM MOPS pH 7.5, 300 uM NADH, excess NDH-2, Q10 concentration in the lipid phase
purified protein = substrate: COc1c(O)c(C)c(C/C=C(\C)CC/C=C(\C)CC/C=C(\C)CC/C=C(\C)CC/C=C(\C)CC/C=C(\C)CC/C=C(\C)CC/C=C(\C)CC/C=C(\C)CCC=C(C)C)c(O)c1OC; assay: purified protein; assay type: biochemical, Candida albicans; conditions: 65 mM MOPS pH 7.5, 300 uM NADH, excess NDH-2, Q10 concentration in the lipid phase

T1 sequence (A0A0L0NPQ3 25-333 limits assumed): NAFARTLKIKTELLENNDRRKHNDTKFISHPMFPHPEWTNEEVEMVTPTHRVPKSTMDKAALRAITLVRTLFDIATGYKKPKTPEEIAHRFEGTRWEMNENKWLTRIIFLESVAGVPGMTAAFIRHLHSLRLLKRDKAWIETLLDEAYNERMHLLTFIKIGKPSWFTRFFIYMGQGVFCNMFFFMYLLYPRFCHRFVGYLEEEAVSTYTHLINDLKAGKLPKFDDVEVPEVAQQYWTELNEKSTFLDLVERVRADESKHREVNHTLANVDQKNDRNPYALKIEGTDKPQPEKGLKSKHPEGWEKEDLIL

Molecule `C/C(=C\Cc1c(O)c(Cl)c(C)c(C=O)c1O)CC/C=C(\C)[C@@H]1CC(=O)C(C)(C)O1` [AF, Ascofuranone] has an IC50 (C. auris AOX [1]) of 0.129 ± 0.018 µM and an IC50 (C. albicans AOX2 [2]) of 0.213 ± 0.027 µM.

`CC(C)=CCC/C(C)=C/Cc1c(O)c(Cl)c(C)c(C=O)c1O` [CB, colletochlorin B] gave an IC50 (C. auris AOX [1]) of 0.055 ± 0.01 µM and an IC50 (C. albicans AOX2 [2]) of 0.053 ± 0.016 µM.

With `NC(=O)C1=CN([C@@H]2O[C@H](COP(=O)(O)OP(=O)(O)OC[C@H]3O[C@@H](n4cnc5c(N)ncnc54)[C@H](O)[C@@H]3O)[C@@H](O)[C@H]2O)C=CC1` [NADH] the “NADH oxidation at 340 nm” value (NDH-2) was “measured spectrophotometrically by measuring the oxidation of NADH at A340 nm”.

`O=C(NO)c1ccccc1O` [SHAM] was tested, and the IC50 (C. auris AOX [3]) was 5000 ± 600 µM and the IC50 (C. albicans AOX2 [4]) was 3500 ± 700 µM.

C. auris AOX (Candidozyma auris) showed a Km [5] of 7.3 ± 1.4 mM and a kcat [5] of 108 ± 3 s⁻¹.

B1: C. albicans AOX2 (Candida albicans) (protein)
chain: T2 sequence (Q9UV71 27-365)
notes: twin-strep tag (pET15b.TS, pTS.CalbAOX2) kept; from E. coli FN102; in self-assembled proteoliposomes
Molecule B1 has a Km (purified protein) of 6.3 ± 1.3 mM and a kcat (purified protein) of 404 ± 51 s⁻¹.
